Source: patent US12741974B2, “Compounds constituting C20-modified salinomycin derivatives, a method for obtaining the same, a composition containing the same, a use of said compounds and a method for obtaining an intermediate product” (FILECLO SP. Z O.O., priority 2020, dated 2021)

Experiments:
Format in all cases: cell-based
[1] = test system: MV-4-11 (human biphenotypic leukaemia); experiment: In vitro cytotoxicity test, MTT assay, 72 h incubation with compound; settings: for IC50: MV-4-11 human biphenotypic leukaemia, MTT, 72 h; for SI MV-4-11: selectivity coefficient, BALB/3T3 versus MV-4-11
Method: (§1) In vitro cytotoxicity tests were performed according to the procedure described below. […] The solvent for further dilutions was a culture medium.
(§2) The experiments were repeated at least 3 times.
After 4 hours of incubation at 37° C., 80 μL of lysis buffer was added to each well.

[2] = In vitro cytotoxicity test on normal cells, SRB assay, 72 h incubation with compound; settings: mouse, balb/3t3 cells, normal murine fibroblasts, read-out: IC50 BALB/3T3
Method: (§3) Normal murine BALB/3T3 fibroblasts were also used in the tests for determining the selectivity coefficients of the compounds used in the assays.
as §1, §2

[3] = test system: Hs294T (human melanoma); experiment: In vitro cytotoxicity test, SRB assay, 72 h incubation with compound; settings: for IC50: Hs294T human melanoma, SRB, 72 h; for SI Hs294T: selectivity coefficient, BALB/3T3 versus Hs294T
Method: as §1, §2

[4] = test system: MCF-7 (human breast cancer); experiment: as above; settings: for IC50: MCF-7 human breast cancer, SRB, 72 h; for SI MCF-7: selectivity coefficient, BALB/3T3 versus MCF-7
Method: as §1, §2

[5] = test system: LoVo (drug-sensitive human colon cancer); experiment: as above; settings: for IC50: LoVo drug-sensitive human colon cancer, SRB, 72 h; for SI LoVo: selectivity coefficient, BALB/3T3 versus LoVo
Method: as §1, §2

[6] = test system: B16-F0 (murine melanoma); experiment: as above; settings: for IC50: B16-F0 murine melanoma, SRB, 72 h; for SI B16-F0: selectivity coefficient, BALB/3T3 versus B16-F0
Method: as §1, §2

[7] = test system: LoVo/DX (drug-resistant human colon cancer); experiment: as above; settings: for IC50: LoVo/DX drug-resistant human colon cancer, SRB, 72 h; for RI: drug resistance coefficient, LoVo/DX versus LoVo, 4320 min; for SI LoVo/DX: selectivity coefficient, BALB/3T3 versus LoVo/DX
Method: as §1, §2

[8] = test system: cancer cells; experiment: In vitro cytotoxicity tests, summary statements over the cancer cell lines; settings: in words; for anti-proliferative effect compared to the parent compound: versus salinomycin
Method: The following cancer cell lines were used in in vitro studies: • B16-F0 (murine melanoma), • Hs294T (human melanoma), • LoVo (drug-sensitive human colon cancer), • LoVo/DX (drug-resistant human colon cancer), • MCF-7 (human breast cancer), • MV-4-11 (human biphenotypic leukaemia).
as §3
In vitro cytotoxicity tests were performed according to the procedure described below. Stock solutions of the test compounds at 10 mg/mLh were prepared for each experiment ex tempore by dissolving 1 mg of the preparation in 100 μL of dimethylsulfoxide (DMSO). The solvent for further dilutions was a culture medium. Compounds were tested at concentration ranges of 100 to 0.00001 μg/mLh (for the B16-F0 and Hs294T cell lines) and 100 to 0.1 μg/mLh (for the LoVo, LoVo/DX, MCF-7, MV-4-11 and BALB/3T3 cell lines).
An MTT tetrazolium salt reduction assay [as per: Wietrzyk et al., Anti-cancer drugs, 2007, 18, 447-457] was performed for MV-4-11 cells (human biphenotypic leukaemia) to evaluate the metabolic activity of cancer cells. On the other hand, to determine the anti-proliferative activity of all tested compounds against B16-F0 (murine melanoma), Hs294T (human melanoma), LoVo (drug-sensitive human colon cancer), LoVo/DX (drug-resistant human colon cancer), MCF-7 (human breast cancer) and BALB/3T3 (normal mouse fibroblasts) cell lines, the SRB colorimetric assay was used [as per: Skehan et al., Journal of the National Cancer Institute, 1990, 82, 1107-1112] measuring the inhibition of target cell proliferation based on the amount of cellular protein measured. In each experiment, samples containing specific concentrations of the test compound were applied to 96-well plates in triplicate. The experiments were repeated at least 3 times.
When calculating the mean absorbance value for a set of wells (untreated cells, cells treated with a specific compound at a specific concentration, control of medium alone), outliers were rejected using a 10% coefficient of variation CV.

[9] = test system: BALB/3T3 (normal murine fibroblasts); experiment: In vitro cytotoxicity test on normal cells, SRB assay, 72 h incubation with compound; settings: read-out: IC50 BALB/3T3
Method: as §3, §1, §2

Compound | IC50 ([1]; MV4-11) | SI MV-4-11 [1] | CC50 at 72 h [2] | IC50 ([3]; Hs 294T) | SI Hs294T [3] | IC50 ([4]; MCF7) | SI MCF-7 [4] | IC50 [5] | SI LoVo [5] | IC50 ([6]; Mus musculus, B16F0) | SI B16-F0 [6] | IC50 [7] | RI [7] | SI LoVo/DX [7] | anti-proliferative effect compared to the parent compound [8] | IC50 [1] | CC50 [9] | other results
CC[C@@H](C(=O)[C@@H](C)[C@@H](O)[C@H](C)[C@@H]1O[C@@H]([C@@H](CC)C(=O)O)CC[C@@H]1C)[C@H]1O[C@]2(C=C[C@@H](NC(=O)C(C)C)[C@]3(CC[C@@](C)([C@H]4CC[C@](O)(CC)[C@H](C)O4)O3)O2)[C@H](C)C[C@@H]1C [(10), C20-dehydroxy-C20-aminosalinomycin N-isobutyramide] | 70 nM | 50.3 | 3520 nM | 20 nM | 176.0 | 700 nM | 5.0 | 670 nM | 5.3 | 70 nM | 50.3 | 190 nM | 0.3 | 18.5 | several times more potent | – | – | –
CCOC(=O)N[C@H]1C=C[C@]2(O[C@H]([C@@H](CC)C(=O)[C@@H](C)[C@@H](O)[C@H](C)[C@@H]3O[C@@H]([C@@H](CC)C(=O)O)CC[C@@H]3C)[C@@H](C)C[C@H]2C)O[C@@]12CC[C@@](C)([C@H]1CC[C@](O)(CC)[C@H](C)O1)O2 [(19 epi), reference compound] | – | 22 | – | – | 16 | – | 1 | 240 nM | 4.1 | – | 3 | 700 nM | 3 | 1.4 | – | 46 nM | 1000 nM | IC50 [3]: 60 nM; IC50 [4]: 1000 nM; IC50 [6]: 330 nM
CC[C@@H](C(=O)[C@@H](C)[C@@H](O)[C@H](C)[C@@H]1O[C@@H]([C@@H](CC)C(=O)[O-])CC[C@@H]1C)[C@H]1O[C@]2(C=C[C@@H](NC(=O)NCCCCl)[C@]3(CC[C@@](C)([C@H]4CC[C@](O)(CC)[C@H](C)O4)O3)O2)[C@H](C)C[C@@H]1C.[Na+] [(25), 3-chloropropylurea of C20-dehydroxy-C20-aminosalinomycin] | 0.3 nM | 4500.0 | 1350 nM | 5.6 nM | 241.1 | 180 nM | 7.5 | 20 nM | 67.5 | 10 nM | 135.0 | 220 nM | 11.0 | 6.1 | tens of times more potent | – | – | preferred effect against a type of cancer cells [8]: preferred effect against biphenotypic leukaemia cells
CC[C@@H](C(=O)[C@@H](C)[C@@H](O)[C@H](C)[C@@H]1O[C@@H]([C@@H](CC)C(=O)O)CC[C@@H]1C)[C@H]1O[C@]2(C=C[C@H](NC(=O)CCCCl)[C@]3(CC[C@@](C)([C@H]4CC[C@](O)(CC)[C@H](C)O4)O3)O2)[C@H](C)C[C@@H]1C [(12 epi), reference compound] | – | 2.9 | – | – | – | – | – | – | – | – | – | – | – | – | – | 2500 nM | 7300 nM | –
CC[C@@H](C(=O)[C@@H](C)[C@@H](O)[C@H](C)[C@@H]1O[C@@H]([C@@H](CC)C(=O)O)CC[C@@H]1C)[C@H]1O[C@]2(C=C[C@@H](NC(=O)c3ccccc3)[C@]3(CC[C@@](C)([C@H]4CC[C@](O)(CC)[C@H](C)O4)O3)O2)[C@H](C)C[C@@H]1C [(15), C20-dehydroxy-C20-aminosalinomycin N-benzamide] | 60 nM | 27.2 | 1630 nM | 20 nM | 81.5 | 280 nM | 5.8 | 280 nM | 5.1 | 20 nM | 81.5 | 50 nM | 0.2 | 32.6 | several times more potent | – | – | –
C#CCOC(=O)N[C@@H]1C=C[C@]2(O[C@H]([C@@H](CC)C(=O)[C@@H](C)[C@@H](O)[C@H](C)[C@@H]3O[C@@H]([C@@H](CC)C(=O)O)CC[C@@H]3C)[C@@H](C)C[C@H]2C)O[C@@]12CC[C@@](C)([C@H]1CC[C@](O)(CC)[C@H](C)O1)O2 [(22), C20-dehydroxy-C20-aminosalinomycin N-propargylcarbamate] | 50 nM | 26.4 | 1320 nM | 4.1 nM | 322.0 | 340 nM | 3.9 | 300 nM | 4.4 | 20 nM | 66.0 | 50 nM | 0.2 | 26.4 | tens of times more potent | – | – | –
CC[C@@H](C(=O)[C@@H](C)[C@@H](O)[C@H](C)[C@@H]1O[C@@H]([C@@H](CC)C(=O)O)CC[C@@H]1C)[C@H]1O[C@]2(C=C[C@@H](NC(=O)OCC(C)(C)C)[C@]3(CC[C@@](C)([C@H]4CC[C@](O)(CC)[C@H](C)O4)O3)O2)[C@H](C)C[C@@H]1C [(20), C20-dehydroxy-C20-aminosalinomycin N-neopentylcarbamate] | 360 nM | 9.0 | 3240 nM | 280 nM | 11.6 | 2380 nM | 1.4 | 820 nM | 4.0 | 640 nM | 5.1 | 640 nM | 0.8 | 5.1 | – | – | – | –
CC[C@@H](C(=O)[C@@H](C)[C@@H](O)[C@H](C)[C@@H]1O[C@@H]([C@@H](CC)C(=O)O)CC[C@@H]1C)[C@H]1O[C@]2(C=C[C@H](NC(=O)C(C)C)[C@]3(CC[C@@](C)([C@H]4CC[C@](O)(CC)[C@H](C)O4)O3)O2)[C@H](C)C[C@@H]1C [(10 epi), reference compound] | – | 9.5 | – | – | 0.95 | – | – | – | – | – | – | – | – | – | – | 400 nM | 3800 nM | IC50 [3]: 4000 nM
